Measurements: US7553972B2, “Benzamide inhibitors of the P2X7 receptor” (Pfizer, Inc., priority 2003, dated 2009)
pIC50: −log10 of the molar value. Where two headings read alike, the source gives them in different places.

Molecular target: T1, P2X7 receptor (Homo sapiens, UniProt Q99572)
T1 construct: endogenous in cells
T1 sequence (Q99572 1-595): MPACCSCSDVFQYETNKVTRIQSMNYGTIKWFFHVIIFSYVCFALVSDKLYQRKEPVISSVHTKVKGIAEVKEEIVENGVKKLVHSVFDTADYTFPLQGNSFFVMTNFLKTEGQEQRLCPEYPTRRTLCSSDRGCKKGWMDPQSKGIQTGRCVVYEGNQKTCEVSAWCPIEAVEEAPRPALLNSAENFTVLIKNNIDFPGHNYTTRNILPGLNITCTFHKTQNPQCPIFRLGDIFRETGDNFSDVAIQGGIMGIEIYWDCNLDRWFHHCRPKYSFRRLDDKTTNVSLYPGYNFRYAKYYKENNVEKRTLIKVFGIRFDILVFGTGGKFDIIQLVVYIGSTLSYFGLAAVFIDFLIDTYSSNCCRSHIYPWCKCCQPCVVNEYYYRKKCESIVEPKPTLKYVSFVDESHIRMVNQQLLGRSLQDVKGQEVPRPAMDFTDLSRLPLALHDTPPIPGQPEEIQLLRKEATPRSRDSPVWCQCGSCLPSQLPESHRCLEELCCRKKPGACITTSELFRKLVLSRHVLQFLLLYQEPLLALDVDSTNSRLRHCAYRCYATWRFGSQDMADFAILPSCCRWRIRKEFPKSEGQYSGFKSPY
Assay: Inhibition of ATP-stimulated IL-1β release from LPS-activated blood monocytes (P2X7 antagonist activity, ELISA readout)
Assay type: cell-based
Description: In like manner, the compounds of the invention can be tested for antagonist activity at the P2X7 receptor using the cytokine IL-1β as the readout. Blood collected from normal volunteers in the presence of heparin is fractionated using lymphocyte separation medium obtained from Organon Technica (Westchester, Pa.). […] The resulting cell pellet was suspended in 10 ml of Maintenance Medium and a cell count was performed. In an average experiment, 2×10^5 mononuclear cells are seeded into each well of 96-well plates in a total volume of 0.1 ml. Monocytes are allowed to adhere for 2 hours, after which the supernatants are discarded and the attached cells are rinsed twice and then incubated in Maintenance Medium overnight at 37° C. in a 5% CO2 environment.
(§1) The cultured monocytes can be activated with 10 ng/ml LPS (E. coli serotype 055:B5; Sigma Chemicals, St. Louis, Mo.). […] ATP then is introduced (from a 100 mM stock solution, pH 7) to achieve a final concentration of 2 mM and the plate is incubated at 37° C. for an additional 3 hours. Media were harvested and clarified by centrifugation, and their IL-1[…] content was determined by ELISA (R&D Systems; Minneapolis, Minn.).
Blood was collected from normal volunteers in the presence of heparin, and was fractionated using lymphocyte separation medium obtained from Organon Technica (Westchester, Pa.). […] The resulting cell pellet was suspended in 10 ml of Maintenance Medium and a cell count was performed. Approximately, 2×10^5 mononuclear cells were seeded into each well of 96-well plates in a total volume of 0.1 ml. Monocytes were allowed to adhere for 2 hours, after which the supernatants were discarded and the attached cells were rinsed twice and then incubated in Maintenance Medium overnight at 37° C. in a 5% CO2 environment.
as §1, with “monocytes were” for “monocytes can be”, “then was” for “then is”, “plate was” for “plate is”, “their IL-1β” for “their IL-1[…]”

[1] = monocytes from normal volunteers, 10 ng/ml LPS 2 h, compound 30 min, 2 mM ATP 3 h, IL-1β by ELISA, triplicate wells, read-out: IC50 (inhibit 50% of the stimulation of the release of IL-1β from monocytes by ATP)

Compound	pIC50 [1]	pIC50
COC[C@H](O)Cn1nc(-c2ccc(Cl)c(C(=O)NCC3(O)CCCCCC3)c2)cc1C (stereo in doubt) [Example 39, 2-Chloro-N-(1-hydroxy-cycloheptylmethyl)-5-[1-(2-hydroxy-3-methoxy-propyl)-5-methyl-1H-pyrazol-3-yl]-benzamide]	8.10	–
Cc1cc(-c2ccc(Cl)c(C(=O)NCC3(O)CCCCCC3)c2)nn1C[C@@H](O)CO [Example 40, 2-Chloro-5-[1-(2,3-dihydroxy-propyl)-5-methyl-1H-pyrazol-3-yl]-N-(1-hydroxy-cycloheptylmethyl)-benzamide]	8.10	–
Cc1cc(-c2ccc(Cl)c(C(=O)NCC3(O)CCCCCC3)c2)nn1CC(=O)NCCN(C)C [Example 47, 2-Chloro-5-{1-[(2-dimethylamino-ethylcarbamoyl)-methyl]-5-methyl-1H-pyrazol-3-yl}-N-(1-hydroxy-cycloheptylmethyl)-benzamide]	8.46	–
O=C(NCC1(O)CCCCCC1)c1cc(-c2ccn(CCO)n2)ccc1Cl [Example 27, 2-Chloro-N-(1-hydroxy-cycloheptylmethyl)-5-[1-(2-hydroxy-ethyl)-1H-pyrazol-3-yl]-benzamide]	7.51	–
Cc1cc(-c2ccc(Cl)c(C(=O)NCC3(O)CCCCCC3)c2)nn1CC(O)CN (stereo not drawn) [Example 44, 5-[1-(3-Amino-2-hydroxy-propyl)-5-methyl-1H-pyrazol-3-yl]-2-chloro-N-(1-hydroxy-cycloheptylmethyl)-benzamide]	8.60	–
NC(=O)Cn1ccc(-c2ccc(Cl)c(C(=O)NCC3(O)CCCCCC3)c2)n1 [Example 35, 5-(1-Carbamoylmethyl-1H-pyrazol-3-yl)-2-chloro-N-(1-hydroxy-cycloheptylmethyl)-benzamide]	6.92	–
Cc1cc(-c2ccc(Cl)c(C(=O)NCC3(O)CCCC(C)(C)C3)c2)on1 (stereo not drawn) [Example 14, 2-Chloro-N-(1-hydroxy-3,3-dimethyl-cyclohexylmethyl)-5-(3-methyl-isoxazol-5-yl)-benzamide]	7.09	–
Cc1nc(-c2ccc(Cl)c(C(=O)NCC3(O)CCCCCC3)c2)cs1 [Example 59, 2-Chloro-N-(1-hydroxy-cycloheptylmethyl)-5-(2-methyl-thiazol-4-yl)-benzamide]	–	6.55
Cc1ccc(C2(CNC(=O)c3cc(-c4ccc(C)nc4)ccc3Cl)CCCCC2)cc1 [Example 1, 2-Chloro-5-(6-methyl-pyridin-3-yl)-N-(1-p-tolyl-cyclohexylmethyl)-benzamide]	7.54	–
CC(C)(O)Cn1ccc(-c2ccc(Cl)c(C(=O)NCC3(O)CCCCCC3)c2)n1 [Example 41, 2-Chloro-N-(1-hydroxy-cycloheptylmethyl)-5-[1-(2-hydroxy-2-methyl-propyl)-1H-pyrazol-3-yl]-benzamide]	7.52	–
Cc1cc(-c2ccc(Cl)c(C(=O)NCC3(O)CCCCCC3)c2)nn1CC(=O)NC[C@H](C)O [Example 51, 2-Chloro-N-(1-hydroxy-cycloheptylmethyl)-5-{1-[(2-hydroxy-propylcarbamoyl)-methyl]-5-methyl-1H-pyrazol-3-yl}-benzamide]	8.30	–
O=C(NCCc1ccccc1Cl)c1cc(-c2cc[nH]n2)ccc1Cl [Example 18, 2-Chloro-N-[2-(2-chloro-phenyl)-ethyl]-5-(1H-pyrazol-3-yl)-benzamide]	6.26	–
Cc1ccc(C2(CNC(=O)c3cc(-c4cc[nH]n4)ccc3Cl)CCCCC2)cc1 [Example 17, 2-Chloro-5-(1H-pyrazol-3-yl)-N-(1-p-tolyl-cyclohexylmethyl)-benzamide]	7.74	–
CCc1cc(-c2ccc(Cl)c(C(=O)NCCc3ccccc3Cl)c2)[nH]n1 [Example 16, 2-Chloro-N-[2-(2-chloro-phenyl)-ethyl]-5-(5-ethyl-2H-pyrazol-3-yl)-benzamide]	6.43	–
O=C(NCC1(O)CCCCCC1)c1cc(-c2cn(CC(O)CF)cn2)ccc1Cl (stereo not drawn) [Example 57, 2-Chloro-5-[1-(3-fluoro-2-hydroxy-propyl)-1H-imidazol-4-yl]-N-(1-hydroxy-cycloheptylmethyl)-benzamide]	< 6.00	–
O=C(NCC1(O)CCCCCC1)c1cc(-c2cc(CCO)on2)ccc1Cl [Example 58, 2-Chloro-N-(1-hydroxy-cycloheptylmethyl)-5-[5-(2-hydroxy-ethyl)-isoxazol-3-yl]-benzamide]	6.37	–
Cc1cc(-c2ccc(Cl)c(C(=O)NCC3(O)CCCCCC3)c2)nn1CC(C)(C)O [Example 42, 2-Chloro-N-(1-hydroxy-cycloheptylmethyl)-5-[1-(2-hydroxy-2-methyl-propyl)-5-methyl-1H-pyrazol-3-yl]-benzamide]	8.10	–
N#CCn1ccc(-c2ccc(Cl)c(C(=O)NCC3(O)CCCCCC3)c2)n1 [Example 34, 2-Chloro-5-(1-cyanomethyl-1H-pyrazol-3-yl)-N-(1-hydroxy-cycloheptylmethyl)-benzamide]	6.71	–
Cc1cc(-c2ccc(Cl)c(C(=O)NCC3(O)CCCCCC3)c2)nn1C[C@@H](O)CN [Example 54, 5-[1-(3-Amino-2-hydroxy-propyl)-5-methyl-1H-pyrazol-3-yl]-2-chloro-N-(1-hydroxy-cycloheptylmethyl)-benzamide]	8.30	–
O=C(NCC1(O)CCCCCC1)c1cc(-c2ccc(=O)n(CCO)n2)ccc1Cl [Example 38, 2-Chloro-N-(1-hydroxy-cycloheptylmethyl)-5-[1-(2-hydroxy-ethyl)-6-oxo-1,6-dihydro-pyridazin-3-yl]-benzamide]	6.61	–

Second part, led by results:

pIC50 [1]	Compound	pIC50
6.74	O=C(NCC1(O)CCCCCC1)c1cc(-c2cc[nH]n2)ccc1Cl [Example 19, 2-Chloro-N-(1-hydroxy-cycloheptylmethyl)-5-(1H-pyrazol-3-yl)-benzamide]	–
7.64	CCc1cc(-c2ccc(Cl)c(C(=O)NCC3(O)CCCCCC3)c2)[nH]n1 [Example 15, 2-Chloro-5-(5-ethyl-2H-pyrazol-3-yl)-N-(1-hydroxy-cycloheptylmethyl)-benzamide]	–
6.62	Cc1cc(-c2ccc(Cl)c(C(=O)NCC3(O)CCCCCC3)c2)on1 [Example 12, 2-Chloro-N-(1-hydroxy-cycloheptylmethyl)-5-(3-methyl-isoxazol-5-yl)-benzamide]	–
8.40	Cc1cc(-c2ccc(Cl)c(C(=O)NCC3(O)CCCCCC3)c2)nn1CCO [Example 25, 2-Chloro-N-(1-hydroxy-cycloheptylmethyl)-5-[1-(2-hydroxy-ethyl)-5-methyl-1H-pyrazol-3-yl]-benzamide]	–
7.96	Cc1cc(-c2ccc(Cl)c(C(=O)NCC3(O)CCCCCC3)c2)nn1CCN [Example 33, 5-[1-(2-Amino-ethyl)-5-methyl-1H-pyrazol-3-yl]-2-chloro-N-(1-hydroxy-cycloheptylmethyl)-benzamide]	–
8.10	Cc1cc(-c2ccc(Cl)c(C(=O)NCC3(O)CCCC(C)(C)C3)c2)[nH]n1 (stereo not drawn) [Example 13, 2-Chloro-N-(1-hydroxy-3,3-dimethyl-cyclohexylmethyl)-5-(5-methyl-2H-pyrazol-3-yl)-benzamide]	–
7.30	O=C(NCC1(O)CCCCCC1)c1cc(-c2cc(C3CC3)[nH]n2)ccc1Cl [Example 22, 2-Chloro-5-(5-cyclopropyl-1H-pyrazol-3-yl)-N-(1-hydroxy-cycloheptylmethyl)-benzamide]	–
6.32	O=C(NCC1(O)CCCCCC1)c1cc(-c2cn[nH]n2)ccc1Cl [Example 56, 2-Chloro-N-(1-hydroxy-cycloheptylmethyl)-5-(2H-[1,2,3]triazol-4-yl)-benzamide]	–
7.15	Cc1cc(-c2ccc(Cl)c(C(=O)NCC3(O)CCCCCC3)c2)n(CCO)n1 [Example 31, 2-Chloro-N-(1-hydroxy-cycloheptylmethyl)-5-[2-(2-hydroxy-ethyl)-5-methyl-2H-pyrazol-3-yl]-benzamide]	–
7.34	Cc1cc(-c2ccc(Cl)c(C(=O)NCC3(C#N)CCCCCC3)c2)[nH]n1 [Example 21, 2-Chloro-N-(1-cyano-cycloheptylmethyl)-5-(5-methyl-2H-pyrazol-3-yl)-benzamide]	–
